Source: patent US9834548B2, “Pyridazine compounds as JAK inhibitors” (Portola Pharmaceuticals, Inc., priority 2014, dated 2017)
Read-outs that look alike come from different tables or passages of the source.

Tests used:
JAK1 = JAK1 (Homo sapiens (Human), UniProt P23458); test: Purified kinase assay (Z'-LYTE), JAK1; type: biochemical
How it was run: (§1)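 Catalytic-domain recombinant kinase with Tyr6 peptide (a separate Tyr6 kit for TYK2) and ATP, 1% DMSO final, reacted 1 h at room temperature. Z′-LYTE FRET read after 1 h protease development (ex 400, em 445/520 nm). Inhibition computed from percent substrate phosphorylation versus no inhibitor; IC50 from 4-parameter logistic fit.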

JAK2 = JAK2 (Homo sapiens (Human), UniProt O60674); test: Purified kinase assay (Z'-LYTE), JAK2; type: biochemical
JAK2, sequence (O60674 849-1124): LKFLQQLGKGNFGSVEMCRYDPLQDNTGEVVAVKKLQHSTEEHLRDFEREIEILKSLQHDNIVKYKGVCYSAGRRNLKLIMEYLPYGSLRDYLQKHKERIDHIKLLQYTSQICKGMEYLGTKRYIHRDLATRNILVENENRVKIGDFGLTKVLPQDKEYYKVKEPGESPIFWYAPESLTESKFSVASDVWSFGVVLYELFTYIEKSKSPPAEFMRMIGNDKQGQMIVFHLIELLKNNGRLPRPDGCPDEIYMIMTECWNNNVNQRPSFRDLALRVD
How it was run: as §1

JAK3 = JAK3 (Homo sapiens (Human), UniProt P52333); test: Purified kinase assay (Z'-LYTE), JAK3; type: biochemical
JAK3, sequence (P52333 822-1111): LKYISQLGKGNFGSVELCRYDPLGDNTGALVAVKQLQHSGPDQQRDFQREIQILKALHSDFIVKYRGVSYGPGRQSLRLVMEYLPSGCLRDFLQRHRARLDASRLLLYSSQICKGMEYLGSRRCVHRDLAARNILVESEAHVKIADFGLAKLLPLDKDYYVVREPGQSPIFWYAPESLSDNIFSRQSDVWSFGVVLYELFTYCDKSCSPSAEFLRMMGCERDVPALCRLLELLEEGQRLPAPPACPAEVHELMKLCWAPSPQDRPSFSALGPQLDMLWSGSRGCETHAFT
How it was run: as §1

TYK2 = TYK2 (Homo sapiens (Human), UniProt P29597); test: Purified kinase assay (Z'-LYTE), TYK2; type: biochemical
TYK2, sequence (P29597 897-1176): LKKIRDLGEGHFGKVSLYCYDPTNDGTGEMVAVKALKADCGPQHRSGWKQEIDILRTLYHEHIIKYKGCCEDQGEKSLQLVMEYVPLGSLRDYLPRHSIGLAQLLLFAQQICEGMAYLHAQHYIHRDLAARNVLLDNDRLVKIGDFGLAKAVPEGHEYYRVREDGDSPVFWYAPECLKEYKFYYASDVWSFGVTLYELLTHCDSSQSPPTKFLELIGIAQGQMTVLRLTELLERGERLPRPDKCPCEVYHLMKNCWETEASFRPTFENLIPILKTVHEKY
Protocol: JAK and TYK2 tyrosine phosphorylation activity is measured using the Z′-LYTE™ Technology developed by Invitrogen Corporation (Carlsbad, Calif.). For JAK1, JAK2 and JAK3 the Z′-LYTE™ Kinase Assay Kit-Tyr6 Peptide (part number PV4122) was used. For TYK2 the Z′-LYTE™ Kinase Assay Kit-Tyr6 Peptide (part number PV3192) was used. The Z′-LYTE™ biochemical assay employs a fluorescence resonance energy transfer (FRET) coupled-enzyme format and is based on the differential sensitivity of phosphorylated and non-phosphorylated peptides to proteolytic cleavage. The assay uses a synthetic peptide substrate that is labeled with a donor fluorophore (coumarin) and an acceptor fluorophore (fluorescein) that make up a FRET pair. In the primary reaction (the Kinase Reaction), the kinase transfers the γ-phosphate of ATP to a single tyrosine residue on the substrate, while the presence of a kinase inhibitor in the primary reaction suppresses phosphorylation. In the secondary reaction (the Development Reaction), a site-specific protease (the Development Reagent) is added. The development buffer quenches the Kinase Reaction, while the protease recognizes and cleaves non-phosphorylated Z′-LYTE™ peptide substrate. Cleavage disrupts FRET between the donor and acceptor fluorophores on the non-phosphorylated substrate, while uncleaved, phosphorylated substrate maintains FRET.
To test the ability of candidate molecules to inhibit JAK tyrosine phosphorylation activity, molecules are reconstituted in 100% DMSO and serially diluted 1:10 in polypropylene v-bottom microtiter plates. The candidate molecules are then diluted 1:25 into kinase buffer and 2.5 μl transferred into duplicate wells of a 384 well low volume black microtiter assay plate (Corning, USA). The final DMSO concentration in the assay is 1%. The kinase reaction contains 2.5 μl of a candidate molecule, 5 μl of catalytic domain recombinant Kinase enzyme+Tyr peptide substrate (Invitrogen, CA) and ATP (Invitrogen, CA). The kinase reaction is allowed to proceed for 1 hour at room temperature. The protease reaction is initiated by the addition of Development Reagent (Invitrogen, CA). After 1 hour incubation at room temperature the fluorescence is measured using a FlexStation plate reader (Molecular Devices, Sunnyvale, Calif.). The reader settings used are as follows: Fluorescence mode, endpoint, top read, excitation 400 nm, emission 445 nm and 520 nm, Auto Cutoff 435 nm and 515 nm, PMT sensitivity high, 6 reads per well Inhibition of JAK activity is calculated as the percent phosphorylation of substrate in the presence of inhibitor compared to the percent phosphorylation of substrate in the absence of inhibitor. IC50's were derived using Xlfit 4.3 (IDBS, UK), 4 parameter logistic model 205: Y=(A+((B−A)/(1+((C/x)^D)))).

[1] = test system: JAK3/JAK1 (IL2-STAT5 in PBMC); test: Intracellular STAT5 phosphorylation following IL2 stimulation of PBMC (JAK3/JAK1 cellular assay); type: cell-based; conditions: Homo sapiens, read-out: IL2-STAT5 percent inhibition of STAT phosphorylation
Protocol: Human whole blood was collected into lithium heparin vacutainer tubes from the antecubital vein of human subjects. Peripheral blood mononuclear cells (PBMC) were prepared by layering 10 ml anti-coagulated blood over 5 ml lymphoprep in a 15 ml conical tube and centrifugation for 20 minutes at 400×g in a swinging bucket rotor. The lymphocyte layer was removed, washed twice in tissue culture media (RPMI containing 10% fetal bovine serum) prior to re-suspension in the same media at 2×10^6 cells/ml. 100 μl aliquots of PMBCs were incubated for 1 h at 37° C. with various concentrations of JAK inhibitors prior to stimulation for 15 minutes with 1.5 ng/ml of IL2 or IL4. The reaction was terminated by the addition of 60 μl 16% paraformaldehyde, followed by incubation at room temperature for 10 minutes. Fixed cells were washed twice in PBS, and then re-suspended in −20° C. 50% methanol diluted in PBS and stored at 4° C. overnight. Following permeabilization of the cell membrane in methanol, cells were washed twice in PBS containing 1% BSA and PBMCs were re-suspended in the same buffer containing CD3 and STAT5 Y694 specific antibodies (IL2 stimulations) or CD3, CD14, CD19, and STAT6 Y641 specific antibodies (IL4 stimulations) for 1 hour at room temperature. Cells were then washed and re-suspended in PBS/BSA buffer and assessed by flow cytometry (LSRII; BD Biosciences) for effect of JAK inhibitors on cytokine mediated STAT phosphorylation.
(§2) Percent inhibition of STAT phosphorylation in the cellular assays is provided for the compounds at the given concentrations.

[2] = test system: JAK2 (GM-CSF-induced pSTAT5 in TF1 cells); test: GMCSF-induced pSTAT5 formation in TF1 (JAK2 cellular assay); type: cell-based; conditions: Homo sapiens, TF-1, read-out: TF1/GM-CSF percent inhibition of STAT phosphorylation
Protocol: 100 μl aliquots of TFI (2.5×10^6/ml) cells were pre-treated with various concentrations JAK inhibitors (0.04 to 5 μM, including 0.2 μM and 1 μM) for 1 hour at 37° C. Cells were then stimulated with 2 ng/ml GM-CSF for 10 minutes at 37° C. The reaction was terminated by the addition of 60 μl 16% paraformaldehyde followed by incubation for 10 minutes at room temperature. Cells were washed twice (centrifugation 5 minutes room temperature at 385×g) in PBS followed by re-suspension in −20° C. 50% methanol in PBS and storage at 4° C. overnight. The following day, cells were washed in PBS/BSA and re-suspended in the same buffer containing STAT5 Y694 specific antibody. Following incubation with antibodies, cells were washed and analyzed by flow cytometry (BD Biosciences; FACS Calibur). The gate was set on live cells in the SSC-FSC plot and 10,000 events were collected.
as §2

JAK1, sequence (P23458 875-1153): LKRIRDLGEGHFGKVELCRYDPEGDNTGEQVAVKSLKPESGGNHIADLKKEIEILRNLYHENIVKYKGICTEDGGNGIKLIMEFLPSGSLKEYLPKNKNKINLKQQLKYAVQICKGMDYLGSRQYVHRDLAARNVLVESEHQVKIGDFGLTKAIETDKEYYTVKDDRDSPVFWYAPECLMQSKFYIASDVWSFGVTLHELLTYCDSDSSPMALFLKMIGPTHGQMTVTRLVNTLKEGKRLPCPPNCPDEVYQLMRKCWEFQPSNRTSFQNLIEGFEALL

Structure (SMILES) | IC50 (JAK1; Table 1, read-out: JAK1 IC50) [nM] | IC50 (JAK1; Table 2, read-out: JAK1) [nM] | IC50 (JAK2; Table 1, read-out: JAK2 IC50) [nM] | IC50 (JAK2; Table 2, read-out: JAK2) [nM] | IC50 (JAK3; Table 1, read-out: JAK3 IC50) [nM] | IC50 (JAK3; Table 2, read-out: JAK3) [nM] | IC50 (TYK2; Table 1, read-out: Tyk2 IC50) [nM] | IC50 (TYK2; Table 2, read-out: TYK2) [nM] | inhibition at 0.2 µM [1] [%] | inhibition at 1 µM [1] [%] | inhibition at 0.1 µM ([2]; at 0.1 μM) [%] | inhibition at 1 µM ([2]; at 1.0 μM) [%]
CCC(=O)N1CCN(c2ccc(Nc3cc(NCc4c(F)cccc4F)c(C(N)=O)nn3)cc2)CC1 [Compound 33] | 100 to 1000 | 100 to 1000 | 10 to 100 | 10 to 100 | 1 to 10 | 1 to 10 | 10 to 100 | 10 to 100 | 31 | 53 | 0 | 17
CC(=O)N1CCN(c2ccc(Nc3cc(NCc4cccc5ccsc45)c(C(N)=O)nn3)cc2)CC1 [Compound 98] | 100 to 1000 | > 1000 | 10 to 100 | 10 to 100 | 1 to 10 | 1 to 10 | > 1000 | > 1000 | 13 | 64 | – | –
CC(=O)Nc1cccc(Nc2cc(NCc3cccc(F)c3)c(C(N)=O)nn2)c1 [Compound 65] | > 1000 | – | 100 to 1000 | – | 10 to 100 | – | 100 to 1000 | – | – | – | – | –
COc1cccc(CNc2cc(Nc3ccc(N4CCN(C(C)=O)CC4)cc3)nnc2C(N)=O)c1 [Compound 58] | > 1000 | – | 100 to 1000 | – | 10 to 100 | – | > 1000 | – | – | – | – | –
Cn1cc(Nc2cc(NCc3cccc(F)c3)c(C(N)=O)nn2)cn1 [Compound 66] | > 1000 | – | 100 to 1000 | – | 10 to 100 | – | > 1000 | – | – | – | – | –
NC(=O)c1nnc(Nc2ccc(N3CCNCC3)cc2)cc1NCc1cccc2ccsc12 [Compound 99] | 100 to 1000 | – | 10 to 100 | – | 1 to 10 | – | 100 to 1000 | – | – | – | – | –
CC(=O)N1CCN(c2ccc(Nc3cc(NCc4cccc5[nH]ccc45)c(C(N)=O)nn3)cc2)CC1 [Compound 109] | 10 to 100 | 10 to 100 | 10 to 100 | 10 to 100 | < 1 | 1 to 10 | – | – | 69 | 95 | – | –
Cc1cc(Nc2cc(NCc3cccc(F)c3F)c(C(N)=O)nn2)ccc1C(=O)N1CCCC1 [Compound 42] | 100 to 1000 | – | 10 to 100 | – | 1 to 10 | – | 100 to 1000 | – | – | – | – | –
